Measured values: the supplement of paper PMC10307832

compound: COC1=CC=C(C=C1)CN2C=CC3=C2C=C(C=C3)C(=O)NO + COc1cc2c(Oc3ccc(NC(=O)C4(C(=O)Nc5ccc(F)cc5)CC4)cc3F)ccnc2cc1OCCCN1CCOCC1 [Foretinib] (partner 0.25 µM); assay: relative viability (nuclei count vs DMSO), 5 days (fraction); higher = more cells survive; conditions: first compound 0.08 µM
In short: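 Values are medians from duplicate plates. Each reflects relative viability, defined as the nuclei count of treated wells over that of vehicle wells. Lung cancer cell lines in 1536-well plates were pin-tool dosed one day after seeding with one drug alone or with a fixed anchor-drug dose plus five library-drug doses (not always all listed) in √10 steps, then fixed, stained and imaged at 4× after 5 days.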

Cell Line | relative viability
NCI-H2342 | 0.997
NCI-H1623 | 0.649
NCI-H1975 | 0.931
H3255 | 0.92
NCI-H2023 | 0.489
NCI-H2405 | 1.01
SK-LU-1 | 0.756
NCI-H1437 | 1.05
NCI-H596 | 0.841
HCC-15 | 0.642
NCI-H460 | 0.53
EMC-BAC-2 | 0.788
IA-LM | 0.997
NCI-H2009 | 0.931
COR-L 105 | 0.681
NCI-H520 | 0.326
EBC-1 | 0.0855
NCI-H1299 | 1.09
NCI-H1650 | 0.764
A549 | 0.802
SW 900 | 0.746
COR-L23 | 0.741
NCI-H1563 | 0.762
Calu-6 | 0.419
SK-MES-1 | 1.17

same assay, conditions: first compound 0.253 µM

Cell Line | relative viability
NCI-H2342 | 0.986
NCI-H1623 | 0.82
LU99A | 0.904
NCI-H1975 | 1.14
H3255 | 0.702
NCI-H2023 | 0.899
NCI-H2405 | 1.06
SK-LU-1 | 0.766
NCI-H1734 | 0.919
NCI-H1437 | 1.21
ABC-1 | 1.14
NCI-H596 | 0.983
HCC-15 | 1.02
NCI-H460 | 1.06
EMC-BAC-2 | 1.03
IA-LM | 1.33
NCI-H2009 | 1.3

Cell Line | relative viability
COR-L 105 | 1.43
NCI-H520 | 0.841
EBC-1 | 0.0996
NCI-H1299 | 1.1
NCI-H1650 | 1.14
A549 | 0.965
SW 900 | 0.822
COR-L23 | 0.992
NCI-H1563 | 0.897
UMC-11 | 1.21
NCI-H2228 | 1
NCI-H1703 | 0.374
ChaGo-K-1 | 0.932
Calu-6 | 0.853
SK-MES-1 | 0.929
NCI-H661 | 1.02

same assay, conditions: first compound 0.8 µM

Cell Line | relative viability
NCI-H2342 | 0.978
NCI-H1623 | 0.866
LU99A | 0.841
NCI-H1975 | 0.934
H3255 | 0.821
NCI-H2023 | 0.778
NCI-H2405 | 1.07
SK-LU-1 | 0.799
NCI-H1734 | 0.852
NCI-H1437 | 1.22
ABC-1 | 1.02
NCI-H596 | 0.846
HCC-15 | 1
NCI-H460 | 0.973
EMC-BAC-2 | 0.98
IA-LM | 1.08
NCI-H2009 | 1.17

Cell Line | relative viability
COR-L 105 | 0.853
NCI-H520 | 0.895
EBC-1 | 0.0919
NCI-H1299 | 1.15
NCI-H1650 | 1.29
A549 | 0.948
SW 900 | 0.908
COR-L23 | 0.985
NCI-H1563 | 0.888
UMC-11 | 1.02
NCI-H2228 | 0.933
NCI-H1703 | 0.385
ChaGo-K-1 | 0.898
Calu-6 | 0.851
SK-MES-1 | 0.927
NCI-H661 | 1.03

same assay, conditions: first compound 2.53 µM

Cell Line | relative viability
NCI-H2342 | 0.956
NCI-H1623 | 0.859
LU99A | 0.865
NCI-H1975 | 0.968
H3255 | 0.89
NCI-H2023 | 0.697
NCI-H2405 | 1.09
SK-LU-1 | 0.86
NCI-H1734 | 0.897
NCI-H1437 | 1.34
ABC-1 | 0.935
NCI-H596 | 0.895
HCC-15 | 1.03
NCI-H460 | 0.974
EMC-BAC-2 | 0.977
IA-LM | 1.2
NCI-H2009 | 1.27

Cell Line | relative viability
COR-L 105 | 1.08
NCI-H520 | 0.814
EBC-1 | 0.102
NCI-H1299 | 1.09
NCI-H1650 | 1.27
A549 | 0.952
SW 900 | 0.828
COR-L23 | 0.99
NCI-H1563 | 0.928
UMC-11 | 1.05
NCI-H2228 | 0.857
NCI-H1703 | 0.368
ChaGo-K-1 | 0.802
Calu-6 | 0.889
SK-MES-1 | 0.98
NCI-H661 | 0.999

same assay, conditions: first compound 8 µM

Cell Line | relative viability
NCI-H2342 | 1.02
NCI-H1623 | 0.766
LU99A | 0.836
NCI-H1975 | 0.926
H3255 | 0.398
NCI-H2023 | 0.722
NCI-H2405 | 1.02
SK-LU-1 | 0.74
